Measured values published in paper PMC3501516, “Anti-Diabetic Efficacy and Impact on Amino Acid Metabolism of GRA1, a Novel Small-Molecule Glucagon Receptor Antagonist” (PLoS ONE, 2012).
Read-outs that look alike come from different tables or passages of the source.

Columns and labels:
[1] = molecular target: T1, PAC1R (pituitary adenylate cyclase-activating polypeptide receptor type 1) (Homo sapiens, UniProt P41586); assay: Inhibition of agonist-stimulated cAMP production in CHO cells expressing PAC1R; format: cell-based; details: PAC1-stimulated
T1 construct: expressed in transfected cells
T1 sequence (P41586 21-468): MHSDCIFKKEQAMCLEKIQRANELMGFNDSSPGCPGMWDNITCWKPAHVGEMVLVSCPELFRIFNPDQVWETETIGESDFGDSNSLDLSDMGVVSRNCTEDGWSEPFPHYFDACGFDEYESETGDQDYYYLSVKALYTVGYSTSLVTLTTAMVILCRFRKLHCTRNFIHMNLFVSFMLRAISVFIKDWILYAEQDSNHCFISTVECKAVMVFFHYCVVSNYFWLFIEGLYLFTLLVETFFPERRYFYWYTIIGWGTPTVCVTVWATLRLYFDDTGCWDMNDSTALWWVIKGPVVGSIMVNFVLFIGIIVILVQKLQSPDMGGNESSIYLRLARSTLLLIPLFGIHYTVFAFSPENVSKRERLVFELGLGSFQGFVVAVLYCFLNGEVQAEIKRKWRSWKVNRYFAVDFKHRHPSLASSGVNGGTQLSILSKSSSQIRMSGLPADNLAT
Text: (§1) Transfected Chinese hamster ovary (CHO) cell lines were acquired and maintained as previously described, [20]. These included separate cell lines stably expressing human GCGR (hGCGR), mouse GCGR, rhesus GGCR, glucose-dependent insulinotropic peptide receptor (GIPR), GLP-1 receptor (GLP-1R), pituitary adenylate cyclase-activating polypeptide receptor type 1 (PAC1R), and vasoactive adenylate cyclase-activating polypeptide receptor type 2 (VPAC2R). Inhibition of glucagon binding to hGCGR was assayed in cell membranes prepared from the line of CHO cells that expressed the hGCGR. Functional antagonism was assayed by measuring the production of cAMP in intact CHO cells stimulated by agonists specific for their cognate receptors (i.e., glucagon for GCGR-expressing cell lines, GIP for the GIPR-expressing line, etc.). Primary human hepatocytes were obtained from In Vitro Technologies (Baltimore, MD) and glucagon-stimulated glycogenolysis was studied in these as previously described.

[2] = Pharmacokinetics / plasma GRA1 concentrations in hGCGR mice; format: in vivo, hGCGR mouse; details: single oral dose 2 mg/kg
GLP-1R (GLP-1 receptor) = molecular target: T2, GLP-1R (GLP-1 receptor) (Homo sapiens, UniProt P43220); assay: Inhibition of GLP-1-stimulated cAMP production in CHO cells expressing GLP-1R; format: cell-based; details: human GLP-1R
T2 construct: expressed in transfected cells
T2 sequence (P43220 24-463): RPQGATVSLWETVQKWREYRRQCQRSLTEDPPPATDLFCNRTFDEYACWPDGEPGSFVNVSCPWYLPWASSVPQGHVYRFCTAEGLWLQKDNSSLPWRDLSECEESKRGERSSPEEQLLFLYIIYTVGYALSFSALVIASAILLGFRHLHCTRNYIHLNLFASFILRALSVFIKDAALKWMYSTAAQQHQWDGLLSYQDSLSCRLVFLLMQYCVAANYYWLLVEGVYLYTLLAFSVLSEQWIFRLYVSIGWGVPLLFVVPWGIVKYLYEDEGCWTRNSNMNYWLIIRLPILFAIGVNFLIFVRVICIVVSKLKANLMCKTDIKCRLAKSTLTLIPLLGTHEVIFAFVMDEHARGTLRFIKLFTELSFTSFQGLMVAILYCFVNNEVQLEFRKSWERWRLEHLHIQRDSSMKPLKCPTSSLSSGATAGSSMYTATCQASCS
Text: as §1

[3] = molecular target: T3, GIPR (glucose-dependent insulinotropic peptide receptor) (Homo sapiens, UniProt P48546); assay: Inhibition of GIP-stimulated cAMP production in CHO cells expressing GIPR; format: cell-based
T3 sequence (P48546 22-466): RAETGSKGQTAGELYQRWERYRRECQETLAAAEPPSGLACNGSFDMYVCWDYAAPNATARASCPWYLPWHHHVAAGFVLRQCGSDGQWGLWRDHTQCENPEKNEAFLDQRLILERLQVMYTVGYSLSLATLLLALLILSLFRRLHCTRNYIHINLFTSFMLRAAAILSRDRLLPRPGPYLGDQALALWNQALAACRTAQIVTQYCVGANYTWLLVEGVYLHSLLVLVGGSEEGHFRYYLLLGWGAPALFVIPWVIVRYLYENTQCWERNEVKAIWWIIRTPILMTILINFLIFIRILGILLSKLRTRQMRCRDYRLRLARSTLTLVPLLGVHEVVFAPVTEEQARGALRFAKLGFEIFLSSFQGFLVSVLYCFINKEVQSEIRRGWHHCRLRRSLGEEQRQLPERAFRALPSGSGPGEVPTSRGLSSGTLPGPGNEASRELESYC
Procedure: (§2) Transfected Chinese hamster ovary (CHO) cell lines were acquired and maintained as previously described [17], [20]. These included separate cell lines stably expressing human GCGR (hGCGR), mouse GCGR, rhesus GGCR, glucose-dependent insulinotropic peptide receptor (GIPR), GLP-1 receptor (GLP-1R), pituitary adenylate cyclase-activating polypeptide receptor type 1 (PAC1R), and vasoactive adenylate cyclase-activating polypeptide receptor type 2 (VPAC2R). […] Functional antagonism was assayed by measuring the production of cAMP in intact CHO cells stimulated by agonists specific for their cognate receptors (i.e., glucagon for GCGR-expressing cell lines, GIP for the GIPR-expressing line, etc.).

hepatic hGCGR = molecular target: T4, hepatic hGCGR (Homo sapiens, UniProt P47871); assay: In vivo inhibition of hepatic 125I-glucagon binding (hGCGR occupancy) in hGCGR mouse
T4 construct: a transgenic line of mouse that expresses the hGCGR instead of the murine GCGR; from tissue; host or cells: liver of hGCGR mouse, in vivo
T4 sequence (P47871 26-477): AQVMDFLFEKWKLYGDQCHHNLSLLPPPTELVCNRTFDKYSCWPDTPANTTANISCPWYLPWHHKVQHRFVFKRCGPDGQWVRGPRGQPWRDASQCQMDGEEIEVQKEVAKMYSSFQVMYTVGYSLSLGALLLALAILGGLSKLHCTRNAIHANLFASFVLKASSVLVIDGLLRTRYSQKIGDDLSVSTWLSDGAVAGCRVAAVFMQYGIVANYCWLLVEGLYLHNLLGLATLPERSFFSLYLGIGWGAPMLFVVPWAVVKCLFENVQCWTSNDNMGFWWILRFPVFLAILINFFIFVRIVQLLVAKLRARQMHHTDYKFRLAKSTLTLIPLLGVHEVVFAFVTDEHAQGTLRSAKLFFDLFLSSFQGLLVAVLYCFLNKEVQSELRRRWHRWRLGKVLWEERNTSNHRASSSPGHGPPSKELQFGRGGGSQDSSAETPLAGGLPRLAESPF
Procedure: Inhibition of ^125I-glucagon binding to hGCGR (a measure of hGCGR occupancy by antagonist) was assayed in hGCGR mouse liver in vivo as previously described. Glycogen content of perfused hGCGR mouse liver was measured as previously described. In brief, livers were perfused ex vivo with Ringers solution containing 6.7 mM [2-^13C]pyruvate while ^13C content (indicative of accumulated [^13C]glycogen) was monitored dynamically by nuclear magnetic resonance imaging.
Figure 2 In vivo inhibition of hepatic ^125I-glucagon binding in the hGCGR mouse following (A) acute and (B) chronic dosing with GRA1. The data are mean (±SEM) percent reductions in liver ^125I-glucagon content measured (A) 1, 3, 5, and 8 h after a single oral dose of 3 mg/kg GRA1, and (B) after treatment for 30 days with control diet or food/drug admixtures that provided 3, 6, 10, or 30 mg/kg·day GRA1.

mouse GCGR = molecular target: T5, mouse GCGR (Mus musculus, UniProt Q61606); assay: Inhibition of glucagon-stimulated cAMP production in CHO cells expressing mouse GCGR; format: cell-based
T5 construct: expressed in transfected cells
T5 sequence (Q61606 27-485): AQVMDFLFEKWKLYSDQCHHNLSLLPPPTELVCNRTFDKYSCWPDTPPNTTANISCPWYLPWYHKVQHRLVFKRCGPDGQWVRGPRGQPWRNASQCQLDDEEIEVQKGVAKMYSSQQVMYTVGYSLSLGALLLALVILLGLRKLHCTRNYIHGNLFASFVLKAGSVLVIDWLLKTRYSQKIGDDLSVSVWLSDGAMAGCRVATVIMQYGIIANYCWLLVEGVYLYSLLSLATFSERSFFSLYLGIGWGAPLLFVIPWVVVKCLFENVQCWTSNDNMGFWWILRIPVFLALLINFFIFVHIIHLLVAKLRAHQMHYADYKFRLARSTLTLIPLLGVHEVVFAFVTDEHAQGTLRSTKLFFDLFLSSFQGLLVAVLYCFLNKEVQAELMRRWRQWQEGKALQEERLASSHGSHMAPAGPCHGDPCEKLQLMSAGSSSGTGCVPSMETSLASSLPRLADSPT
Procedure: as §2

rhesus monkey = assay: Blunting of glucagon-induced blood glucose excursion in rhesus monkey; format: in vivo; details: 1 mg/kg 4 h before 15 µg/kg glucagon i.m.
Procedure: In mouse studies of glucagon-induced excursions in blood glucose, animals were dosed orally with vehicle (10 mL/kg 0.5% aqueous methylcellulose) or GRA1 one hour prior to challenge by intraperitoneal injection of 15 µg/kg glucagon (Eli Lilly, Indianapolis, IN) or vehicle, [20]. In the studies in monkey, GRA1 or vehicle was administered to chair-restrained animals via a nasogastric tube 4 h prior to intramuscular injection of 15 µg/kg glucagon. Blood glucose measurements were made using a OneTouch glucometer (Lifescan, Milpitas, CA).
Figure 3 Blunting of glucagon-induced blood glucose excursions by GRA1 treatment in the (A) hGCGR mouse and (B) rhesus monkey. In (A), mice (n = 8) were administered vehicle or 3, 10 or 30 mg/kg GRA1, then challenged 1 h later (time 0) by intraperitoneal injection of 15 µg/kg glucagon or vehicle. Pharmacokinetic analysis determined that these animals had mean plasma GRA1 concentrations of 0.4, 0.9, and 4.7 µM, respectively, at 1 h postdose. In (B), monkeys (n = 4) were administered 1 mg/kg GRA1 4 h prior to intramuscular injection of 15 µg/kg glucagon or vehicle. At 1 h postdose, the mean plasma GRA1 concentration in these animals was 0.2 µM. *p<0.05; **p<0.01; and ***p<0.001 vs. glucagon-treated control animals.

SMILES: COc1ccc2cc(-c3cc(-c4cc(C(F)(F)F)ccc4F)nn3[C@@H](C)c3ccc(C(=O)NCCC(=O)O)cc3)ccc2c1 [GRA1, N-[4-((1S)-1-{3-(2-fluoro-5-trifluoromethylphenyl)-5-[6-methoxynaphth-2-yl]-1H-pyrazol-1-yl}ethyl)benzoyl]-β-alanine]
- IC50 [1]: 7.85 µM
- half-life ([2]; mouse, plasma, read-out: Apparent plasma terminal half-life (converted)): 6.8 h
- Mean rate of absorption from the gut [2]: 69%
- Route of excretion [2]: nearly all absorbed drug was subsequently excreted unchanged via the bile
- IC50 (GLP-1R (GLP-1 receptor)): 7.9 µM
- IC50 [3]: 0.933 µM
- receptor occupancy at 3 mg/kg (hepatic hGCGR; 30 days food admixture, 3 mg/kg·day, read-out: Receptor occupancy): 71%
- receptor occupancy at 6 mg/kg (hepatic hGCGR; 30 days food admixture, 6 mg/kg·day): 78%
- receptor occupancy at 10 mg/kg (hepatic hGCGR; 30 days food admixture, 10 mg/kg·day): 83%
- receptor occupancy at 30 mg/kg (hepatic hGCGR; 30 days food admixture, 30 mg/kg·day): 93%
- receptor occupancy at 3 mg/kg (hepatic hGCGR; po, single oral dose 3 mg/kg, 1 h postdose, read-out: Receptor occupancy): 64%
- receptor occupancy at 3 mg/kg (hepatic hGCGR; po, single oral dose 3 mg/kg, 3 h postdose, read-out: Receptor occupancy): 71%
- receptor occupancy at 3 mg/kg (hepatic hGCGR; po, single oral dose 3 mg/kg, 5 h postdose, read-out: Receptor occupancy): 65%
- receptor occupancy at 3 mg/kg (hepatic hGCGR; po, single oral dose 3 mg/kg, 8 h postdose, read-out: Receptor occupancy): 73%
- receptor occupancy at 3 mg/kg (hepatic hGCGR; po, single oral dose 3 mg/kg, for 1–8 h, read-out: Reduction of in vivo occupancy of hepatic hGCGR by 125I-glucagon): 64 to 73%
- IC50 (mouse GCGR): 0.178 µM
- Reduction of magnitude of glucagon-stimulated blood glucose excursion (rhesus monkey): about 50%
